Results from ChEMBL document CHEMBL6087446, “Hypoxia Activated Nitric Oxide Donor Compounds for the Prevention and Treatment of Myocardial Hypoxia-Induced Injury” (J Med Chem, 2025).
The source made the active and inactive calls. The rule behind the calls is not given here.

What was measured:
Mus musculus [1] = experiment: Prevention of myocardial hypoxia injury in isoproterenol-induced male C57 mouse myocardial injury model assessed as decrease in myocardial size at 8 mg/kg, ip once daily for 3 consecutive days (reference value: 6.47 mm); type: functional; settings: time 3 day
Mus musculus [2] = experiment: Prevention of myocardial hypoxia injury in isoproterenol-induced male C57 mouse myocardial injury model assessed as pathological myocardial change by measuring cellular arrangements at 8 to 16 mg/kg, IG once daily for 3 consecutive days by hematoxylin and eosin staining based analysis; type: functional, organism-based; settings: dose 8-16 mg/kg, time 3.0 day
[3] = Toxicity in male C57 mouse assessed as mortality at 900 mg/kg, ip measured up to 14 days observation period; type: organism-based; settings: in vivo, 336 h, time < 14 day
Mus musculus [4] = experiment: Prevention of myocardial hypoxia injury in isoproterenol-induced male C57 mouse myocardial injury model assessed as decrease in mTORC1 expression at 8 to 16 mg/kg, ip once daily for 3 consecutive days by immunohistochemistry; type: functional, organism-based; settings: dose 8-16 mg/kg, time 3.0 day
Mus musculus [5] = experiment: Prevention of myocardial hypoxia injury in isoproterenol-induced male C57 mouse myocardial injury model assessed as decrease in heart weight ratio at 8 mg/kg, ip once daily for 3 consecutive days (reference value: 0.68%); type: functional; set-up: scale not given: the % may be the effect or the level left; settings: time 3 day
[6] = Half life in female Balb/c mouse at 8 mg/kg, ip measured up to 24 hrs by LC-MS/MS analysis; type: ADME, organism-based; settings: in vivo
Mus musculus [7] = experiment: Prevention of myocardial hypoxia injury in isoproterenol-induced male C57 mouse myocardial injury model assessed as reduction in cardiac troponin (CK) at 5 mg/kg, ip once daily for 3 consecutive days by immunohistochemistry; type: functional, organism-based; settings: time 3.0 day
Mus musculus [8] = experiment: Prevention of myocardial hypoxia injury in isoproterenol-induced male C57 mouse myocardial injury model assessed as pathological myocardial change by clear vascular boundaries at 8 to 16 mg/kg, ip once daily for 3 consecutive days by hematoxylin and eosin staining based analysis; type: functional, organism-based; settings: dose 8-16 mg/kg, time 3.0 day
Mus musculus [9] = experiment: Prevention of myocardial hypoxia injury in isoproterenol-induced male C57 mouse myocardial injury model assessed as reduction in creatine kinase (CK) at 8 to 16 mg/kg, ip once daily for 3 consecutive days by immunohistochemistry; type: functional, organism-based; settings: dose 8-16 mg/kg, time 3.0 day
[10] = Toxicity in isoproterenol-induced male C57 mouse assessed as body weight change at 5 mg/kg, ip once daily for 3 consecutive days; type: organism-based; settings: in vivo, 72 h, time 3 day
H9c2 [11] = experiment: Prevention of hypoxia-induced ROS production in rat H9c2 cells at 1 uM measured after 4 hrs incubation by DCFH-DA method; type: functional, cell-based
Mus musculus [12] = experiment: Prevention of myocardial hypoxia injury in isoproterenol-induced male C57 mouse myocardial injury model assessed as pathological myocardial change by heart sections at 8 to 16 mg/kg, ip once daily for 3 consecutive days by hematoxylin and eosin staining based analysis; type: functional, organism-based; settings: dose 8-16 mg/kg, time 3.0 day
Mus musculus [13] = experiment: Prevention of myocardial hypoxia injury in isoproterenol-induced male C57 mouse myocardial injury model assessed as reduction in creatine kinase-MB (CK-MB) at 5 mg/kg, ip once daily for 3 consecutive days by immunohistochemistry; type: functional, organism-based; settings: time 3.0 day
Mus musculus [14] = experiment: Prevention of myocardial hypoxia injury in isoproterenol-induced male C57 mouse myocardial injury model assessed as reduction in creatine kinase-MB (CK-MB) at 8 to 16 mg/kg, ip once daily for 3 consecutive days by immunohistochemistry; type: functional, organism-based; settings: dose 8-16 mg/kg, time 3.0 day
Mus musculus [15] = experiment: Prevention of myocardial hypoxia injury in isoproterenol-induced male C57 mouse myocardial injury model assessed as heart weight ratio at 16 mg/kg, ip once daily for 3 consecutive days (reference value: 0.60%); type: functional; settings: time 3 day
Mus musculus [16] = experiment: Prevention of myocardial hypoxia injury in isoproterenol-induced male C57 mouse myocardial injury model assessed as antihypertrophic effect at 16 mg/kg, ip once daily for 3 consecutive days; type: functional, organism-based; settings: time 3.0 day
H9c2 [17] = experiment: Prevention of hypoxia-induced decrease in ATP level in rat H9c2 cells at 10 uM […] (Rvb =- 19.6 nmol/mg); type: ADME, cell-based; settings: h9c2, 10 µM
Mus musculus [18] = experiment: Prevention of myocardial hypoxia injury in isoproterenol-induced male C57 mouse myocardial injury model assessed as decrease in ACE expression at 8 to 16 mg/kg, ip once daily for 3 consecutive days by immunohistochemistry; type: functional, organism-based; settings: dose 8-16 mg/kg, time 3.0 day
H9c2 [19] = experiment: Prevention of hypoxia-induced ACE expression in rat H9c2 cells assessed as inhibition of ACE overexpression at 10 uM measured after 4 hrs incubation; type: functional, cell-based
Mus musculus [20] = experiment: Prevention of myocardial hypoxia injury in isoproterenol-induced male C57 mouse myocardial injury model assessed as pathological myocardial change by absence of infarction areas at 8 to 16 mg/kg, ip once daily for 3 consecutive days by hematoxylin and eosin staining based analysis; type: functional, organism-based; settings: dose 8-16 mg/kg, time 3.0 day
H9c2 [21] = experiment: Prevention of hypoxia-induced TSP1 expression in rat H9c2 cells assessed as inhibition of TSP1 overexpression at 10 uM measured after 4 hrs incubation; type: functional, cell-based
[22] = AUC (0 to infinity) in female Balb/c at 8 mg/kg, ip mouse measured up to 24 hrs by LC-MS/MS analysis; type: ADME, organism-based; settings: in vivo
Mus musculus [23] = experiment: Prevention of myocardial hypoxia injury in isoproterenol-induced male C57 mouse myocardial injury model assessed as reduction in cardiac troponin (CK) at 8 to 16 mg/kg, ip once daily for 3 consecutive days by immunohistochemistry; type: functional, organism-based; settings: dose 8-16 mg/kg, time 3.0 day
Mus musculus [24] = experiment: Prevention of myocardial hypoxia injury in isoproterenol-induced male C57 mouse myocardial injury model assessed as increase in NO level in heart tissue at 16 mg/kg, ip once daily for 3 consecutive days; type: functional, organism-based; settings: time 3.0 day
[25] = AUC (0 to last) in female Balb/c at 8 mg/kg, ip mouse measured up to 24 hrs by LC-MS/MS analysis; type: ADME, organism-based; settings: in vivo
[26] = Induction of NO release in rat H9c2 cells at 10 uM by Griess reagent assay relative to control; type: functional
H9c2 [27] = experiment: Prevention of hypoxia-induced decrease cell viability of rat H9c2 cells at 10 uM by CCK8 assay; type: functional, cell-based
Mus musculus [28] = experiment: Prevention of myocardial hypoxia injury in isoproterenol-induced male C57 mouse myocardial injury model assessed as prevention of lamellar collagen fiber deposition at 8 to 16 mg/kg, ip once daily for 3 consecutive days by Masson staining based analysis; type: functional, organism-based; settings: dose 8-16 mg/kg, time 3.0 day
[29] = Cmax in female Balb/c mouse at 8 mg/kg, ip measured up to 24 hrs by LC-MS/MS analysis; type: ADME, organism-based; settings: in vivo
H9c2 [30] = experiment: Induction of NO release in rat H9c2 cells under hypoxia condition by Griess reagent assay relative to control; type: functional, cell-based
H9c2 [31] = experiment: Prevention of hypoxia-induced mTORC1 expression in rat H9c2 cells assessed as inhibition of mTORC1 overexpression at 10 uM measured after 4 hrs incubation; type: functional, cell-based
Mus musculus [32] = experiment: Prevention of myocardial hypoxia injury in isoproterenol-induced male C57 mouse myocardial injury model assessed as increase in NO level in heart tissue at 8 mg/kg, ip once daily for 3 consecutive days; type: functional, organism-based; settings: time 3.0 day
Mus musculus [33] = experiment: Prevention of myocardial hypoxia injury in isoproterenol-induced male C57 mouse myocardial injury model assessed as increase in NO level in myocardial tissue at 8 to 16 mg/kg, IG once daily for 3 consecutive days; type: functional, organism-based; settings: dose 8-16 mg/kg, time 3.0 day
[34] = Toxicity in male C57 mouse assessed as physiological distress at 900 mg/kg, ip measured after 12 hrs of administration; type: organism-based; settings: in vivo
H9c2 [35] = experiment: Prevention of hypoxia-induced TSC2-P expression in rat H9c2 cells assessed as inhibition of TSC2-P overexpression at 10 uM measured after 4 hrs incubation; type: functional, cell-based

What does the source list for `CN(N=O)c1ccc(OCc2ccc([N+](=O)[O-])c(F)c2)cc1`?
Activity (Mus musculus [1]): 2.53 mm; Activity (Mus musculus [2]): Active; Activity [3]: Non-toxic; Activity (Mus musculus [4]): Active; Activity (Mus musculus [5]): 0.53%; half-life [6]: 2.39 h; Activity (Mus musculus [7]): Active; Activity (Mus musculus [8]): Active; Activity (Mus musculus [9]): Active; Activity [10]: Non-toxic; Activity (H9c2 [11]): Active; Activity (Mus musculus [12]): Active; Activity (Mus musculus [13]): Active; Activity (Mus musculus [14]): Active; Activity (Mus musculus [15]): 0.51%; Activity (Mus musculus [16]): Active; Activity (H9c2 [17]): 37.9 nmol/mg; Activity (Mus musculus [18]): Active; Activity (H9c2 [19]): Active; Activity (Mus musculus [20]): Active; Activity (H9c2 [21]): Active; AUC [22]: 640 ng·h/mL; Activity (Mus musculus [23]): Active; Activity (Mus musculus [24]): Active; AUC(0-t) at 24 h [25]: 626 ng·h/mL; Activity [26]: <5%; Activity (H9c2 [27]): Active; Partially Restores Cell Viability; Activity (Mus musculus [28]): Active; Cmax [29]: 450 ng/mL; Activity (H9c2 [30]): Dose-dependent-effect; Activity (H9c2 [31]): Active; Activity (Mus musculus [32]): Active; Activity (Mus musculus [33]): Active; Activity [34]: Non-toxic; Activity (H9c2 [35]): Active
